This data set can be described thus: recombinant barcode read abundance after kanamycin selection (control-corrected) (log10(CPM+1)); higher = more efficient recombination; sequences stand for … in AGTGCAGAGAAAATCGGCCAGTTTTCTCTGCCTGCAGTCCGCATGCCGT…AGATTTATGCAGCGGACTGCCTTTCTCCCAAAGTGATAAACCGGACAGTATCATGGACCGGTTTTCCCGGTAATCCGTATTTGCAAGGTTGGTTTCACT; site = the 11-nt target. The essentials: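 Recombination efficiency comes from barcode counts at recombinant junctions, converted to counts per million, averaged and corrected against the control. Values appear as log10(CPM+1). They were obtained from a pooled E. coli screen in which each oligo paired a target with an IS621 bridge RNA target-binding loop, and cells were plated in duplicate on chloramphenicol/ampicillin LB agar or on chloramphenicol/ampicillin/kanamycin with 0.1 mM IPTG.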
Regarding “CCTCTGCCTTGGGTTCTAACCTGTTGCCT (site CGTCTCCCTAG)”, the “recombinant barcode read abundance (log10)” value was found to be 0.103. Consider “CCTGAATCTTGGGTTCTAACCTGTTGCCT (site CCTGAATCTAG)”, for which the “recombinant barcode read abundance (log10)” value was found to be 0.1.

On to “CCTGAATCTTGGGTTCTAACCTGTTGCCT (site CCTGACTCTAG)”, for which the “recombinant barcode read abundance (log10)” value was determined as 0.19. For “CCTGAATCTTGGGTTCTAACCTGTTGCCT (site CCTGAGTCTAG)”, the “recombinant barcode read abundance (log10)” value was found to be 0.279. Take “CCTGAATCTTGGGTTCTAACCTGTTGCCT (site CCTGATTCTAG)”: the “recombinant barcode read abundance (log10)” value stood at 0.073. Then “CCTGAGTCTTGGGTTCTAACCTGTTGCCT (site CCTGAATCTAG)”, with 0.289.

With “CCTGAGTCTTGGGTTCTAACCTGTTGCCT (site CCTGACTCTAG)”, the “recombinant barcode read abundance (log10)” value came out at 0.0437. On to “CCTGAGTCTTGGGTTCTAACCTGTTGCCT (site CCTGAGTCTAG)”, for which the “recombinant barcode read abundance (log10)” value was 1.01. For “CCTGAGTCTTGGGTTCTAACCTGTTGCCT (site CCTGATTCTAG)”, the “recombinant barcode read abundance (log10)” value came to 0.0908. For “CCTGGGCCTTGGGTTCTAACCTGTTGCCT (site CATGGGCCTAG)”, the “recombinant barcode read abundance (log10)” value is 0.0944. As for “CCTGGGCCTTGGGTTCTAACCTGTTGCCT (site CCTGGGCCTAG)”, the “recombinant barcode read abundance (log10)” value stood at 0.11.

As to “CCTGGGCCTTGGGTTCTAACCTGTTGCCT (site CGTGGGCCTAG)”, the “recombinant barcode read abundance (log10)” value is 0.0559. With “CCTGGGCCTTGGGTTCTAACCTGTTGCCT (site CTTGGGCCTAG)”, the “recombinant barcode read abundance (log10)” value came to 0.

For “CCTGGGTCTTGGGTTCTAACCTGTTGCTT (site CATGGGTCTAG)”, the “recombinant barcode read abundance (log10)” value was determined as 0.0557.

For the sequence “CCTGGGTCTTGGGTTCTAACCTGTTGCTT (site CCTGGGTCTAA)”, the “recombinant barcode read abundance (log10)” value turned out to be 1.08. As for “CCTGTCACTTGGGTTCTAACCTGTTGCCA (site CCTGTCACTTG)”, the “recombinant barcode read abundance (log10)” value was 0.474. For the sequence “CCTGTCACTTGGGTTCTAACCTGTTGCCA (site TACCGAGCTCA)”, the “recombinant barcode read abundance (log10)” value worked out at 0.11.

Turning to “CCTTGAGCTTGGGTTCTAACCTGTTGCTG (site CCTTGAGCTCA)”, the “recombinant barcode read abundance (log10)” value is 0.308.

As for “CCTTGAGCTTGGGTTCTAACCTGTTGCTG (site GCTTGAGCTCG)”, the “recombinant barcode read abundance (log10)” value was determined as 0.0694.

As for “CCTTGTACTTGGGTTCTAACCTGTTGCTT (site AGCATCTCTCG)”, the “recombinant barcode read abundance (log10)” value amounted to 0.0216. As for “CCTTGTACTTGGGTTCTAACCTGTTGCTT (site CCTTGTACTAA)”, the figure is 0.131. Consider “CCTTTGACTTGGGTTCTAACCTGTTGCTT (site CCTTTGACTAA)”, for which the “recombinant barcode read abundance (log10)” value came out at 0.0825. With “CCTTTGACTTGGGTTCTAACCTGTTGCTT (site CCTTTGTCTAA)”, the “recombinant barcode read abundance (log10)” value was 0.156. As to “CGAACCGCTTGGGTTCTAACCTGTTGCCT (site CAAACCGCTAG)”, the “recombinant barcode read abundance (log10)” value was 0.26. As to “CGAACCGCTTGGGTTCTAACCTGTTGCCT (site CCAACCGCTAG)”, the “recombinant barcode read abundance (log10)” value stood at 0.0439. As for “CGAACCGCTTGGGTTCTAACCTGTTGCCT (site CGAACCGCTAG)”, the figure is 0.974; as for “CGAACCGCTTGGGTTCTAACCTGTTGCCT (site CTAACCGCTAG)”, 0.0258; as for “CGAACCTCTTGGGTTCTAACCTGTTGCCG (site CGAACCTCTCG)”, 0.903.

Turning to “CGAACCTCTTGGGTTCTAACCTGTTGCCG (site CGAATCCCTCG)”, the “recombinant barcode read abundance (log10)” value is 0.0358. “CGAACTACTTGGGTTCTAACCTGTTGCAT (site CGAACTACTAA)”: the “recombinant barcode read abundance (log10)” value was determined as 0.215. “CGAACTACTTGGGTTCTAACCTGTTGCAT (site CGAACTACTAC)”: the “recombinant barcode read abundance (log10)” value turned out to be 0.168.

With “CGAACTACTTGGGTTCTAACCTGTTGCAT (site CGAACTACTAG)”, the “recombinant barcode read abundance (log10)” value turned out to be 0.0576.

The values are drawn from the supplement of paper PMC11208160.
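Also: IS621 recombinase and bridge RNA in Escherichia coli cells.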
